Values joined by “and” are separate entries in the source; they are usually repeats but may differ in a detail not shown here. Identical values can stand only once. Like-named read-outs stand apart in the source and are kept apart here.
Columns and labels:
Epidermal Growth Factor = test: hamster cheek pouch (HCP) angiogenesis inhibition, EGF stimulus; type: in vivo, Male Syrian Golden hamsters; details: 10 μg EGF; for % Inhibition HCP Stimulus Epidermal Growth Factor: Table 1, between 0.5 and 4 mg/kg s.c. daily, each number independent result, average of six animals; for HCP % Inhibition Stimulus EGF: Table 2, compounds given daily at 0.4 mg/kg
Procedure: (§1) Each compound of the series was also tested for anti-angiogenic activity by an in vivo test that measured vascularization in a hamster's cheek pouch in response to either an angiogenic polypeptide growth factor, epidermal growth factor (EGF) or an induced […].
(§2) In this example, the in vivo angiogenesis inhibition activity of etianic acid esters was tested. Male Syrian Golden hamsters, weighing between 120 g and 150 g were anaesthetized by intraperitoneal (I.P.) injection of a rodent anaesthetic mixture consisting of 50 mg/kg ketamine hydrochloride, 5 mg/kg xylazine and 1 mg/kg acepromazine. The left cheek pouch of each animal was everted with a pincet and pinned down to a plexiglass-rubber stage and observed through a Zeiss stereomicroscope. 10 μg of EGF or 3×10^5 Hamster Melanoma RPM1 1846 tumor cells in 10 μl Cibachrome Blue agarose (Amicon) were injected subcutaneously in the left lower quadrant of the pouch with a Hamilton syringe.
(§3) The pouch was then reinserted and animals were kept under observation until recovered from anaesthesia.
(§4) The animals were dosed daily with one test compound, starting one day before stimulus injection and continuing until observation. The test compounds were dissolved in a minimum volume of ethanol and diluted in sterile phosphate buffer solution. […]
(§5) Either five days or twelve days after the EGF or tumor cell injection, animals were anaesthetized by I.P. injection of the rodent anaesthetic mixture. The pouch was everted on the stage and examined under the stereomicroscope. Pictures were taken with a 35 mm using Kodak Tungsten 50 professional films.
(§6) The following subjective scoring was used for evaluating the photographs:
(§7) 1: minimal branching of vessels in the vicinity of injection site.
(§8) 2: new vessels reach injection site, area involved is minimal (<50% of area surrounding injection site).
(§9) 3: many vessels reach and cross injection site, new vessels are tortuous, (>50% of area surrounding injection site).
(§10) 4: "full blown", many tortuous vessels, leakages, hemorrhages, 100% of area around injection site, invasion of new vessels into non-injected areas.
(§11) Results are expressed as the mean of the score. The results are shown in Tables 1 and 2 are percent inhibition of HCP Stimulus.

[1] = system: alkaline phosphatase (APb); test: alkaline phosphatase (APb) induction in LE II cells; type: cell-based, mouse; details: for Emax: Mus musculus, Table 1, about 65 hours, relative to dexamethasone = 1, read-out: Efficacy (DEX = 1) Alk P
Procedure: This is another standard test for glucocorticoid activity.
LE II cells were grown in DMEM plus 10% FCS, at 37° C., in a 10% carbon dioxide atmosphere. Confluent monolayers of cells were trypsinized and seeded at a 1:15 dilution into 6-well Costar cluster dishes. […] In all experiments, DEX, at concentrations of 10^-9 to 10^-6 M, was added to some of the wells as a positive control.
Cell monolayers were washed with PBS and harvested by scraping with a rubber policeman into 400 μl of a buffer of 20 mM Tris-HCl at pH 7.4; 2 mM MgCl2; and 150 mM NaCl together with 1% Triton X-100. Samples were transferred into 1.5 ml Eppendorf centrifuge tubes and placed on ice. The tubes were first vortexed and then centrifuged in the Eppendorf minicentrifuge for 2 minutes. Duplicate 100 μl aliquots of supernatant were placed into 12×75 mm glass test tubes for determination of APb activity, while the rest was saved for protein determination. […] The tubes were incubated in a 37° C. water bath for between 20 to 50 minutes, depending on the activity of the samples. The APb reaction was terminated by the addition of 0.5 ml of […]. The tubes were mixed and 200 μl portions from each tube were transferred in triplicate to a 96 well microtiter plate. The OD410 nm of each well was then determined using a Dynatech plate reader.
[…] of the cell supernatant were transferred to 96 well microtiter plates for protein determination by a modification of the Lowry method. […] The plates were shaken for 1 hour and then the OD630 was determined using a Dynatech plate reader. The protein content for each sample was calculated by comparing the average OD630 reading with those obtained for a bovine serum albumin standard curve.
The alkaline phosphatase activity of in each sample was expressed as μmoles product formed per minute per mg protein in the Alk P column of Tables 1 and 2. Results are expressed as the induction ability of a compound as compared to dexamethasone.

[2] = system: Hamster Melanoma RPM1 1846 tumor cells; test: Inhibition of tumor growth (2 week assay); type: in vivo, Male Syrian Golden hamsters; details: Table 3, dose 0.8 mg/kg; for Angiogenesis score: mean of score 0 (no new vessels) to 4 (full blown), untreated 3.1 [A], 2.9 [B]; for Tumor area Mn (mm^2): untreated 40.7 ± 16.2 [A], 27.5 ± 15.3 [B]
Procedure: as §2, §3
The animals were dosed daily with one test compound, starting one day before stimulus injection and continuing until observation. The test compounds were dissolved in a minimum volume of ethanol and diluted in sterile phosphate buffer solution. Then between 0.5 and 4 mg/kg of the test compound was injected subcutaneously.
as §5, §6, §7, §8, §9, §10
(§12) In the case of the tumor, tumor size was also determined. (See Table 4)
as §11

[3] = system: Hamster Melanoma RPM1 1846 tumor cells; test: hamster cheek pouch (HCP) angiogenesis inhibition, 1846 tumor cell stimulus; type: in vivo, Male Syrian Golden hamsters; details: 3×10^5 tumor cells; for % Inhibition HCP Stimulus 1846: Table 1, between 0.5 and 4 mg/kg s.c. daily, each number independent result, average of six animals; for HCP % Inhibition Stimulus 1846: Table 2, compounds given daily at 0.4 mg/kg
Procedure: as §1, §2, §3, §4, §5, §6, §7, §8, §9, §10, §12, §11

[4] = system: tyrosine aminotransferase (TAT); test: tyrosine aminotransferase (TAT) induction in HTC cells; type: cell-based, rat; details: for Emax: from 10^-6 M down, relative to dexamethasone = 1, read-out: Efficacy (DEX = 1) TAT
Procedure: In this example, tyrosine aminotransferase (TAT) activity was determined by a spectrophotometric assay. This enzyme catalyzes the conversion of tyrosine to p-hydroxyphenylpyruvate. This example is a standard in vitro test for glucocorticoid activity.
Addition of base caused the conversion of p-hydroxyphenylpyruvate to p-hydroxybenzaldehyde, which was quantitatively measured by absorbance at 331 nm. HTC cells, the target cells for the compound tested were grown in DMEM+10% FCS. Subconfluent cell cultures were incubated with test compounds in 6 well Costar dishes for 24 or 48 hours. The cells were incubated in either serum-free DMEM or DMEM containing 10% FCS previously filtered over activated charcoal. The cells were harvested in PBS using a rubber policeman, then washed once in PBS by centrifugation and resuspended in a 0.3 ml lysis buffer of 10 mM Tris, 10 mM EDTA and 0.25M sucrose at pH 7.4. The cells were then lysed by three cycles of freeze-thawing using dry ice and a 37° C. waterbath and the cells debris was pelleted by centrifugation for 2 min at 12,000 9 in an Eppendorf centrifuge.
The supernatant was used for a protein determination using either E+K stain or BioRad protein assay kit and TAT activity. 0.1 ml TAT buffer having 50 mM KH2 PO4, 1 mM EDTA, 0.1 mM Dithiothereitol (DTT), and 5 mg/ml BSA at pH 7.6 and 0.1 ml cell extract were mixed in glass tubes. A prewarmed mixture of 200 parts of a 2.3 mg/ml tyrosine solution in 0.05M phosphate buffer, 100 parts 0.125M KH2 PO4, 10 parts of a 0.92 mg/ml and ketoglutarate solution and 1 part of a 0.04 mg/ml pyridoxalphosphate solution had been previously made up. […] of the prewarmed mixture was added to each tube and allowed to react at 37° C. for 15 min. The addition of 0.1 ml 7N […] stopped the reaction. The mixture was then immediately vortexed.
Aldehyde formation was allowed to proceed at 37° C. for 30 min. The amound of aldehyde formed was determined by UV spectroscopic means. Absorbance was read at 331 nm using a solution composed of 0.1 ml TAT buffer, 0.1 ml lysis buffer, 0.7 ml reaction mixture and 0.1 ml 7N KOH as a blank. Optical Density values are linearily corrected for protein content.
As the absolute amount of enzyme induction varies between experiments, results are expressed as percent of the maximal induction obtained with dexamethasone, which was run as a standard in each assay.
In this series, compounds were assayed from 10^-6 M down. Results are expressed in the TAT column of tables 1, and 2 as the induction ability of a compound as compared to dexamethasone; a compound may either be a partial inducer or a superinducer.

[5] = Rattus norvegicus, Table 1, 24 or 48 hours
[6] = Rattus norvegicus, Table 2, 24 or 48 hours

SMILES: CCCCC(=O)O[C@]1(C(=O)OC)[C@H](C)C[C@H]2[C@@H]3CC(F)C4=CC(=O)C=C[C@]4(C)[C@@]3(F)[C@@H](O)C[C@@]21C (stereo partly shown) [compound 10]
- % Inhibition HCP Stimulus Epidermal Growth Factor (Epidermal Growth Factor): 100%
- Emax [1]: 70%
- Angiogenesis % Inh. [2]: 23%
- Tumor area % (inhibition of tumor growth) [2]: 45%
- Angiogenesis score [2]: 2.4
- Tumor area Mn (mm^2) [2]: 22.5 ± 13.7 mm^2
- % Inhibition HCP Stimulus 1846 [3]: 24%
- Emax [4, 5]: 90%

SMILES: CCCCC(=O)O[C@]1(C(=O)SC)[C@@H](C)C[C@H]2[C@@H]3CC(F)C4=CC(=O)C=C[C@]4(C)[C@@]3(F)C(O)C[C@@]21C (stereo partly shown) [compound 14]
- HCP % Inhibition Stimulus EGF (Epidermal Growth Factor; 0.4 mg/kg): 22% and 42%
- HCP % Inhibition Stimulus 1846 [3]: 16%
- Emax [4, 6]: 60%

SMILES: CCC(=O)O[C@]1(C(=O)OC)[C@@H](C)C[C@H]2[C@@H]3CC(F)C4=CC(=O)C=C[C@]4(C)[C@@]3(F)[C@@H](O)C[C@@]21C (stereo partly shown) [compound 2]
- % Inhibition HCP Stimulus Epidermal Growth Factor (Epidermal Growth Factor): 100%
- Emax [1]: 90%
- Angiogenesis % Inh. [2]: 35%
- Tumor area % (inhibition of tumor growth) [2]: 58%
- Angiogenesis score [2]: 1.9
- Tumor area Mn (mm^2) [2]: 11.6 ± 10.3 mm^2
- % Inhibition HCP Stimulus 1846 [3]: 33% and 35%
- Emax [4, 5]: 80%

SMILES: CCC(=O)O[C@]1(C(=O)SC)[C@H](C)C[C@H]2[C@@H]3CCC4=CC(=O)C=C[C@]4(C)[C@@]3(F)C(O)C[C@@]21C (stereo partly shown) [compound 15]
- HCP % Inhibition Stimulus EGF (Epidermal Growth Factor): 30%

SMILES: C[C@@H]1C[C@H]2[C@@H]3CCC4=CC(=O)C=C[C@]4(C)[C@@]3(F)[C@@H](O)C[C@]2(C)[C@@]1(O)C(=O)CO [Dexamethasone, dexamethasone, reference compound]
- incubation time to maximum induction of alkaline phosphatase activity ([1]; preliminary experiments): 48 to 72 h
- concentration inducing maximal TAT activity [4]: 10^-7 M
- EC50 ([4]; Rattus norvegicus): ~20 nM

SMILES: CCCC(=O)O[C@]1(C(=O)SC)[C@H](C)C[C@H]2[C@@H]3CC(F)C4=CC(=O)C=C[C@]4(C)[C@@]3(F)C(O)C[C@@]21C (stereo partly shown) [compound 18]
- HCP % Inhibition Stimulus 1846 [3]: 16%
- Emax [4, 6]: 130%

SMILES: COC(=O)[C@@]1(OC(C)=O)[C@H](C)C[C@H]2[C@@H]3CC(F)C4=CC(=O)C=C[C@]4(C)[C@@]3(F)[C@@H](O)C[C@@]21C (stereo partly shown) [compound 6]
- % Inhibition HCP Stimulus Epidermal Growth Factor (Epidermal Growth Factor): 23%
- Emax [4, 5]: 70%

SMILES: CCCC(=O)O[C@]1(C(=O)SC)[C@@H](C)C[C@H]2[C@@H]3CC(F)C4=CC(=O)C=C[C@]4(C)[C@@]3(F)[C@@H](O)C[C@@]21C (stereo partly shown) [compound 13]
- HCP % Inhibition Stimulus EGF (Epidermal Growth Factor; 0.4 mg/kg): 94% and 84%
- Angiogenesis % Inh. [2]: 42%
- Tumor area % (inhibition of tumor growth) [2]: 78%
- Angiogenesis score [2]: 1.8
- Tumor area Mn (mm^2) [2]: 9.1 ± 3 mm^2
- HCP % Inhibition Stimulus 1846 ([3]; 0.4 mg/kg): 40% and 53% and 45%
- Emax [4, 6]: 90%

SMILES: CCCC(=O)O[C@]1(C(=O)SC)[C@@H](C)C[C@H]2[C@@H]3CCC4=CC(=O)C=C[C@]4(C)[C@@]3(F)C(O)C[C@@]21C (stereo partly shown) [compound 12]
- HCP % Inhibition Stimulus EGF (Epidermal Growth Factor): 37%
- Emax [4, 6]: 130%

SMILES: CCC(=O)O[C@]1(C(=O)SC)[C@@H](C)C[C@H]2[C@@H]3CC(F)C4=CC(=O)C=C[C@]4(C)[C@@]3(F)C(O)C[C@@]21C (stereo partly shown) [compound 11]
- HCP % Inhibition Stimulus EGF (Epidermal Growth Factor): 100%
- HCP % Inhibition Stimulus 1846 [3]: 28%
- Emax [4, 6]: 140%

SMILES: CCC(=O)O[C@]1(C(=O)SC)[C@H](C)C[C@H]2[C@@H]3CC(F)C4=CC(=O)C=C[C@]4(C)[C@@]3(F)C(O)C[C@@]21C (stereo partly shown) [compound 16]
- HCP % Inhibition Stimulus EGF (Epidermal Growth Factor): 46%
- HCP % Inhibition Stimulus 1846 ([3]; 0.4 mg/kg): 25% and 35%
- Emax [4, 6]: 120%

SMILES: COC(=O)[C@@]1(OC=O)[C@H](C)C[C@H]2[C@@H]3CC(F)C4=CC(=O)C=C[C@]4(C)[C@@]3(F)[C@@H](O)C[C@@]21C (stereo partly shown) [compound 5]
- % Inhibition HCP Stimulus Epidermal Growth Factor (Epidermal Growth Factor): -25%

Reference: patent publication US4599331A, “Etianic acids as antiangiogenics” (Syntex (U.S.A.) Inc., priority 1984, dated 1986)
